Measured values taken from patent US9334267B2, “RAF inhibitor compounds” (Deciphera Pharmaceuticals, LLC, priority 2012, dated 2016).
Where two headings read alike, the source gives them in different places.

Key:
A375res cells [1] = assay: Proliferation assay in vemurafenib-resistant melanoma cells A375res; conditions: 72 hour proliferation assay
[2] = system: phospho-ERK in HCT-116 cells; assay: HCT-116 cell pERK assay (AlphaScreen SureFire); assay type: cell-based; conditions: B-Raf wild type, K-Ras mutation
Experimental: Examples of Formula I are tested against HCT-116 cells harboring wild type B-Raf and K-Ras mutation. The phospho-ERK activities are evaluated as described below.
HCT-116 cells (catalog #CCL-247) are obtained from the American Type Culture Collection (ATCC, Manassas, Va.). Briefly, cells are grown in McCoy's 5A supplemented with 10% characterized fetal bovine serum (Invitrogen, Carlsbad, Calif.), and 1% Penicillin/Streptomycin/L-Glutamine at 37 degrees Celsius, 5% CO2, and 95% humidity. Cells are allowed to expand until reaching 75-90% confluency at which point they are subcultured or harvested for assay use. HCT-116 cells suspended in complete media are added to 384-well tissue culture treated plates (3×10^5 cells/mL; 7,500 cells per well). The cells are incubated overnight at 37 degrees Celsius, 5% CO2, and 95% humidity. Next, test compound or DMSO diluted in complete media is added to the wells (0.25% final DMSO concentration). The plates are then incubated for 4 hours at 37 degrees Celsius, 5% CO2, and 95% humidity. Following compound incubation, the cells are lysed at 4° C. for 20 minutes with shaking. Cell lysates are centrifuged and the supernatant is transferred to a new plate. An aliquot of each lysate is transferred to a white 384-well assay plate. Using the AlphaScreen SureFire pERK kit (Perkin-Elmer, Waltham, Mass.), an acceptor bead mixture is added to each well and incubated for 2 h at room temperature in the dark. A donor bead mixture is then added to each well and incubated for 2 h at room temperature in the dark. Plates are read using a Synergy2 plate reader (Biotek, Winooski, Vt.) in Plate Mode with Timing Control. Read: (F)1: excitation: 680/30 nm, emission: Plug. 2: Excitation: Plug, emission: 570/100 nm. Top mirror 635 nm. Data is analyzed using Prism software (Graphpad, San Diego, Calif.) to calculate IC50 values and Excel software (Microsoft, Redmond, Wash.) to calculate stimulation compared to control.

A375res cells [3] = system: A375res cells

CCCS(=O)(=O)Nc1ccc(F)c(C(=O)c2c[nH]c3ncc(Cl)cc23)c1F [PLX4720, reference compound]
IC50 shift A375 to A375res (A375res cells [1]): more than 27 fold

CCCS(=O)(=O)Nc1ccc(F)c(C(=O)c2c[nH]c3ncc(-c4ccc(Cl)cc4)cc23)c1F [vemurafenib, reference compound]
concentrations at which the pERK signal is stimulated [2]: up to 3 uM | IC50 shift A375 to A375res (A375res cells [3]): more than 57 fold
